Usually pIC50 stands for the negative decadic logarithm of the IC50, by convention in mol/L.

The test system of experiment [1] is parental cancer cell line KB-3-1. Briefly: MDR reversal study (MTT), parental cancer cell line. It is filed as cell-based. To be noted: for pIC50: read-out: IC50, chemotherapeutic alone.
Protocol: (§1) The cytotoxicity of the peptide in different cell lines was measured by modified MTT assay. 5,000 cells per well were seeded in a 96-well microplate and cultured overnight. Peptides and positive control were added in a designated concentration gradient. The plate was incubated for 68 h, and then added with 20 μL of MTT solution (4 mg/mL) per well and incubated for another 4 h. The medium was pipetted, to which 100 μL of DMSO was added to dissolve the formaldehyde crystals. The absorbance was measured at 570 nm with a UV/Vis microplate spectrophotometer.
In experiment [2] the test system is transfected empty vector cell line HEK293/pcDNA3.1. Description: MDR reversal study (MTT), transfected empty vector cell line. It is filed as cell-based. To be noted: for pIC50: read-out: IC50, chemotherapeutic alone.
Protocol: as §1
The subject of experiment [3] is transfected ABCB1-overexpressing cell line HEK293/ABCB1. Description: MDR reversal study (MTT), transfected ABCB1-overexpressing cell line. Conditions: Table 4, IC50 divided by IC50 in HEK293/pcDNA3.1.
Protocol: as §1
Experiment [4] deals with drug-induced ABCB1-overexpressing cancer cell line KB-C2. Description: MDR reversal study (MTT), drug-induced ABCB1-overexpressing cell line. To be noted: Table 3, IC50 divided by IC50 in KB-3-1.
Protocol: as §1
Experiment [5] relates to drug-induced ABCC1-overexpressing cancer cell line KB-CV60. Briefly: MDR reversal study (MTT), drug-induced ABCC1-overexpressing cell line. It is filed as cell-based. To be noted: for pIC50: Table 5, no reversal agent, read-out: IC50, chemotherapeutic alone.
Experiment [6] has as its system transfected ABCC1-overexpressing cell line HEK293/ABCC1. Description: MDR reversal study (MTT), transfected ABCC1-overexpressing cell line. The class given is cell-based. Conditions: for pIC50: Table 6, no reversal agent, read-out: IC50, chemotherapeutic alone.
In a further experiment the test system is parental cells (KB-3-1). Description: Modified MTT cytotoxicity assay, parental cells. To be noted: Homo sapiens, KB 3-1, 72 h, read-out: IC50 (cytotoxicity), KB-3-1. (In general: Tetrazolium dyes change colour on reduction, which living cells bring about.)
The test system of experiment [7] is ABCB1-overexpressing cancer cells (KB-C2). Description: Modified MTT cytotoxicity assay, ABCB1-overexpressing cells. Conditions: Homo sapiens, KB-C2, 72 h, read-out: IC50 (cytotoxicity), KB-C2.
Protocol: as §1
Experiment [8] has as its system ABCC1-overexpressing cancer cells (KB-CV60). Briefly: Modified MTT cytotoxicity assay, ABCC1-overexpressing cells. Conditions: KB-CV60, 72 h, read-out: IC50 (cytotoxicity), KB-CV60.

pIC50: −log10 of the molar value. Where two headings read alike, the source gives them in different places.

In the case of `COc1cccc2c1C(=O)c1c(O)c3c(c(O)c1C2=O)C[C@@](O)(C(=O)CO)C[C@@H]3O[C@H]1C[C@H](N)[C@H](O)[C@H](C)O1` [Adriamycin], the “RF (resistant fold), chemotherapeutic alone” value in experiment [1] (Table 3, no reversal agent) was determined as 1.00; in [4] it was 58.84. The “RF (resistance fold), chemotherapeutic alone” value was 1.00 in experiment [2] (Table 4, no reversal agent) and 25.29 in [3].

`N.N.[Cl][Pt][Cl]` [Cisplatin]: the pIC50 is 5.75 in experiment [1] (Table 3, no reversal agent); 5.75 in experiment [1] (Table 5, no reversal agent); 5.65 in experiment [2] (Table 4, no reversal agent); 5.65 in [2] (Table 6, no reversal agent); 5.65 in [5]; 5.65 in experiment [6].

Take `CN(C)C(=O)CCSC(SCCC(=O)O)c1cccc(/C=C/c2ccc3ccc(Cl)cc3n2)c1` (centres unmarked) [MK571]: in [2] (Table 6, MK571 5 μM), the “RF of Cisplatin + MK571” value is on record as 0.99 and the “RF of Vincristine + MK571” value came to 1.02.

As for `CC(=O)O[C@H]1C(=O)[C@@]2(C)[C@H]([C@H](OC(=O)c3ccccc3)[C@]3(O)C[C@H](OC(=O)[C@H](O)[C@@H](NC(=O)c4ccccc4)c4ccccc4)C(C)=C1C3(C)C)[C@]1(OC(C)=O)CO[C@@H]1C[C@@H]2O` [Paclitaxel], the pIC50 in the experiment on parental cells (KB-3-1) is 7.52; in [7], 5.75. Moreover, the “RF (resistant fold), chemotherapeutic alone” value in experiment [1] (Table 3, no reversal agent) was 1.00.

For `CC[C@]1(O)C[C@H]2CN(CCc3c([nH]c4ccccc34)[C@@](C(=O)OC)(c3cc4c(cc3OC)N(C=O)[C@H]3[C@@](O)(C(=O)OC)[C@H](OC(C)=O)[C@]5(CC)C=CCN6CC[C@]43[C@@H]65)C2)C1` [Vincristine], the negative logarithm of the IC50 (pIC50) with parental cells (KB-3-1) is 7.02; in experiment [8], 4.79; in experiment [5], 4.79; in experiment [6], 5.57. The “RF (resistance fold), chemotherapeutic alone” value came out at 1.00 in [1] (Table 5, no reversal agent); 1.00 in experiment [2] (Table 6, no reversal agent); 169.05 in experiment [5] (Table 5, IC50 divided by IC50 in KB-3-1); 19.79 in [6] (Table 6, IC50 divided by IC50 in HEK293/pcDNA3.1).
